The test deals with T1, α5ß2 γ2 GABAA Receptor (Homo sapiens, UniProt P18507+P31644).
T1 sequence (P31644 32-462): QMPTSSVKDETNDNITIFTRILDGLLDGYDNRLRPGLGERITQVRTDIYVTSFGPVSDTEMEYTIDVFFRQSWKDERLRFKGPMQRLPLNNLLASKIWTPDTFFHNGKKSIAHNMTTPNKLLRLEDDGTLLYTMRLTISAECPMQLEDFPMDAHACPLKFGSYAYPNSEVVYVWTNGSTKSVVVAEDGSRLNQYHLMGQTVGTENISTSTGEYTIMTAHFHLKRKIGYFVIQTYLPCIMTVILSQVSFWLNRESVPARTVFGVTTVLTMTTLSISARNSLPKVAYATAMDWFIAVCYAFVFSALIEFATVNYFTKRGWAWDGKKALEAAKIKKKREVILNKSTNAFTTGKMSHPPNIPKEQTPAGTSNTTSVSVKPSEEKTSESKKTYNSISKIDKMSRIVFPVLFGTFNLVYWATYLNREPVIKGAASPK
T1 sequence (P18507 40-376 limits assumed): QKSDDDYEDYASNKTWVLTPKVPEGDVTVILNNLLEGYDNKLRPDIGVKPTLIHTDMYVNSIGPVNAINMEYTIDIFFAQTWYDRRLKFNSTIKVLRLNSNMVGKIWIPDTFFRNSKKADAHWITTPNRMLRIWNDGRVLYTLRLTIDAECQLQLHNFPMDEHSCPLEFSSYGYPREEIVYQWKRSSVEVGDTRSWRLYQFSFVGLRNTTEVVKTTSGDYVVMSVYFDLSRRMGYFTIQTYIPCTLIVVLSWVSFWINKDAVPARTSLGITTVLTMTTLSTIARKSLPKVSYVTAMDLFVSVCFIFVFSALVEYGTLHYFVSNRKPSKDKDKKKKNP
As to the kind of experiment: Assay B: in vitro evaluation of modulation of α5ß2γ2 GABAA receptor, two-electrode voltage clamp in oocytes. The test is classed as cell-based. The note with it: for EC50: co-application with 0.5 μM GABA, oocytes, read-out: Assay B: GABAA α 5 β 3 γ 2 EC50. As to the method:
Assay B: In Vitro Evaluation of Modulation of α5ß2 γ2 GABAA Receptor.
Modulatory efficacy of compounds of formular (I) is determined electrophysiological recordings in oocytes using the two-electrode voltage clamp (TEVC) technique. Oocytes are injected with cRNA for human GABAA receptor subunits α5, ß2 and γ2 in a 3:1:3 ratio and modulatory efficacy is evaluated by co-applications with a submaximal EC5-20 GABA concentration (0.5 μM) termed GABA control. As a standard, the compounds are tested in five concentrations (3.16, 0.316, 0.0316, 0.00316 and 0.000316 μM) on each oocyte starting with the lowest concentration. Background subtracted peak current amplitudes are normalized to the respective GABAcontrol current, converted to % change and depicted +/−S.E.M. as a function of increasing compound concentrations. Plotted datapoints are fitted to the empirical Hill equation using non-linear regression. 95% confidence intervals for maximal efficacy (Bottom) and potency (Log EC50) are derived from this fitting routine.
A general note: In two-electrode clamp one electrode senses voltage and the other passes current.

Broadly, the EC50 is the concentration at which the effect is half-maximal.

Consider `Cc1nnn(-c2ccc(C(F)F)cn2)c1COc1ccc(-c2ccc(=O)n(C)c2)nn1` [Example 1, 5-[6-({1-[5-(difluoromethyl)pyridin-2-yl]-4-methyl-1H-1,2,3-triazol-5-yl}methoxy)pyridazin-3-yl]-1-methyl-1,2-dihydropyridin-2-one], for which the Assay B: GABAA α 5 β 3 γ 2 Emax vs GABA is -24.9% and the EC50 came out at 41.3 nM. `Cc1nnn(-c2ccc(C(F)F)cn2)c1COc1ccc(-c2cnc(N)nc2)nn1` [Example 2]: the Assay B: GABAA α 5 β 3 γ 2 Emax vs GABA was -25.3% and the EC50 worked out at 92.5 nM. As for `Cc1cc(-c2ccc(OCc3c(C)nnn3-c3ccc(C(F)F)cn3)nn2)cnn1` [Example 3], the Assay B: GABAA α 5 β 3 γ 2 Emax vs GABA was -24.7% and the EC50 was 6.6 nM. Turning to `Cc1nnn(-c2ccc(C(F)F)cn2)c1COc1ccc(-c2cn[nH]c2)nn1` [Example 4], the Assay B: GABAA α 5 β 3 γ 2 Emax vs GABA is -22.3% and the EC50 came out at 93 nM. As for `Cc1nnn(-c2ccc(C(F)F)cn2)c1COc1ccc(-c2cc[nH]n2)nn1` [Example 5], the Assay B: GABAA α 5 β 3 γ 2 Emax vs GABA was -32.3% and the 50% effective concentration (EC50) came out at 11.6 nM. Turning to `Cc1nnn(-c2ccc(C(F)F)cn2)c1COc1ccc(-c2cccc(C(N)=O)c2)nn1` [Example 6], the Assay B: GABAA α 5 β 3 γ 2 Emax vs GABA is -8.8% and the EC50 stood at 13.9 nM.

Turning to `Cc1nnn(-c2ccc(C(F)F)cn2)c1COc1ccc(-c2cnn(CC#N)c2)nn1` [Example 7], the Assay B: GABAA α 5 β 3 γ 2 Emax vs GABA was -6.3% and the EC50 was found to be 12.7 nM. For `Cc1nnn(-c2ccc(C(F)F)cn2)c1COc1ccc(-c2ccc(C#N)nc2)nn1` [Example 8], the Assay B: GABAA α 5 β 3 γ 2 Emax vs GABA is 2.7%. As to `Cc1nnn(-c2ccc(C(F)F)cn2)c1COc1ccc(-c2ccc(C#N)s2)nn1` [Example 12], the Assay B: GABAA α 5 β 3 γ 2 Emax vs GABA was -12.3% and the EC50 worked out at 147 nM. For `CNc1cccc(-c2ccc(OCc3c(C)nnn3-c3ccc(C(F)F)cn3)nn2)n1` [Example 14], the Assay B: GABAA α 5 β 3 γ 2 Emax vs GABA is -21% and the EC50 worked out at 89 nM. As for `Cc1n[nH]c(C)c1-c1ccc(OCc2c(C)nnn2-c2ccc(C(F)F)cn2)nn1` [Example 15], the Assay B: GABAA α 5 β 3 γ 2 Emax vs GABA is -24.7% and the EC50 came to 34.7 nM. As for `Cc1nnn(-c2ccc(C(F)F)cn2)c1COc1ccc(-c2ccc(S(C)(=O)=O)nc2)nn1` [Example 16], the Assay B: GABAA α 5 β 3 γ 2 Emax vs GABA is -20.3% and the EC50 came to 85.9 nM. Turning to `Cc1nnn(-c2ccc(C(F)F)cn2)c1COc1ccc(-c2ccnnc2)nn1` [Example 17], the Assay B: GABAA α 5 β 3 γ 2 Emax vs GABA was -33.2% and the EC50 amounted to 1 nM. With `Cc1ncc(-c2ccc(OCc3c(C)nnn3-c3ccc(C(F)F)cn3)nn2)o1` [Example 18], the Assay B: GABAA α 5 β 3 γ 2 Emax vs GABA is -28.7% and the EC50 turned out to be 23.3 nM.

Consider `Cc1nnn(-c2ccc(C(F)F)cn2)c1COc1ccc(-c2ccc(N)nc2)nn1` [Example 19], for which the Assay B: GABAA α 5 β 3 γ 2 Emax vs GABA is -28.5% and the EC50 was 64 nM. As for `Cc1nnn(-c2ccc(C(F)F)cn2)c1COc1ccc(-c2c[nH]c(=O)c(F)c2)nn1` [Example 20], the Assay B: GABAA α 5 β 3 γ 2 Emax vs GABA was -32.3% and the EC50 was 11.6 nM. For `CCn1cc(-c2ccc(OCc3c(-c4ccc(C(F)F)cn4)nnn3C)nn2)cn1` [Example 22], the Assay B: GABAA α 5 β 3 γ 2 Emax vs GABA is -14.9% and the concentration for a half-maximal effect (EC50) came out at 26.9 nM. As to `Cn1nnc(-c2ccc(C(F)F)cn2)c1COc1ccc(-c2ccc(S(C)(=O)=O)nc2)nn1` [Example 23], the Assay B: GABAA α 5 β 3 γ 2 Emax vs GABA was -8% and the concentration giving a half-maximal response (EC50) was 3.1 nM. The corresponding values for `Cn1nnc(-c2ccc(C(F)F)cn2)c1COc1ccc(-c2cn[nH]c2)nn1` [Example 24] are -14.7% and 9.8 nM.

For the compound `Cn1nnc(-c2ccc(C(F)F)cn2)c1COc1ccc(-c2ccc(N)nc2)nn1` [Example 25], the Assay B: GABAA α 5 β 3 γ 2 Emax vs GABA is -11% and the EC50 is 8.2 nM. `Cn1nnc(-c2ccc(C(F)F)cn2)c1COc1ccc(-c2cccc(C(N)=O)c2)nn1` [Example 28]: the Assay B: GABAA α 5 β 3 γ 2 Emax vs GABA was -20% and the EC50 worked out at 14.6 nM. Take `Cc1c(-c2ccc(OCc3c(-c4ccc(C(F)F)cn4)nnn3C)nn2)cc(C#N)n1C` [Example 29]: the Assay B: GABAA α 5 β 3 γ 2 Emax vs GABA was -29% and the concentration giving a half-maximal response (EC50) was determined as 11.5 nM. Consider `Cc1nn(C)cc1-c1ccc(OCc2c(-c3ccc(C(F)F)cn3)nnn2C)nn1` [Example 30], for which the Assay B: GABAA α 5 β 3 γ 2 Emax vs GABA is -4.7% and the EC50 came to 4.6 nM. `COc1ncc(-c2ccc(OCc3c(-c4ccc(C(F)F)cn4)nnn3C)nn2)cn1` [Example 31]: the Assay B: GABAA α 5 β 3 γ 2 Emax vs GABA was -12.3% and the EC50 came to 20 nM. Turning to `Cn1nnc(-c2ccc(C(F)F)cn2)c1COc1ccc(-c2cnn(C3CCC3)c2)nn1` [Example 32], the Assay B: GABAA α 5 β 3 γ 2 Emax vs GABA was -3.3%. As for `Cc1c(-c2ccc(OCc3c(-c4ccc(C(F)F)cn4)nnn3C)nn2)cnn1C` [Example 33], the Assay B: GABAA α 5 β 3 γ 2 Emax vs GABA was -21% and the EC50 was determined as 29.5 nM. As to `Cn1nnc(-c2ccc(C(F)F)cn2)c1COc1ccc(-c2cnc3nonc3c2)nn1` [Example 35], the Assay B: GABAA α 5 β 3 γ 2 Emax vs GABA was -9.6% and the EC50 came out at 63 nM. Regarding `Cc1nnn(-c2ccc(C(F)F)cn2)c1COc1ccc(-n2cc(C#N)cn2)nn1` [Example 37], the Assay B: GABAA α 5 β 3 γ 2 Emax vs GABA is -25.3% and the EC50 turned out to be 37.3 nM. On to `Cc1nnn(-c2ccc(C(F)F)cn2)c1COc1ccc(-n2ncnc2C)nn1` [Example 38], for which the Assay B: GABAA α 5 β 3 γ 2 Emax vs GABA was -22.5% and the EC50 stood at 22.8 nM. With `Cn1nnc(-c2ccc(C(F)F)cn2)c1COc1ccc(-c2cnccn2)nn1` [Example 39], the Assay B: GABAA α 5 β 3 γ 2 Emax vs GABA is -24.6% and the EC50 amounted to 354 nM. `Cc1nnn(-c2ccc(C(F)F)cn2)c1COc1ccc(-n2cnc(C#N)c2)nn1` [Example 42, 1-[6-({1-[5-(difluoromethyl)pyridin-2-yl]-4-methyl-1H-1,2,3-triazol-5-yl}methoxy)pyridazin-3-yl]-1H-imidazole-4-carbonitrile]: the Assay B: GABAA α 5 β 3 γ 2 Emax vs GABA was -25% and the concentration for a half-maximal effect (EC50) was found to be 15.8 nM.

Regarding `Cc1nnn(-c2ccc(C(F)F)cn2)c1COc1ccc(-n2nccn2)nn1` [Example 43], the Assay B: GABAA α 5 β 3 γ 2 Emax vs GABA was -20.2% and the EC50 came to 24.8 nM. On to `Cc1ncnn1-c1ccc(OCc2c(-c3ccc(C(F)F)cn3)nnn2C)nn1` [Example 48, 3-({4-[5-(difluoromethyl)pyridin-2-yl]-1-methyl-1H-1,2,3-triazol-5-yl}methoxy)-6-(5-methyl-1H-1,2,4-triazol-1-yl)pyridazine], for which the Assay B: GABAA α 5 β 3 γ 2 Emax vs GABA is -13.2% and the EC50 was determined as 78.9 nM. As to `Cn1nnc(-c2ccc(C(F)F)cn2)c1COc1ccc(-n2cc(C#N)cn2)nn1` [Example 49], the Assay B: GABAA α 5 β 3 γ 2 Emax vs GABA is 5.7%.

On to `Cn1nnc(-c2ccc(C(F)F)cn2)c1COc1ccc(-n2cccn2)nn1` [Example 50], for which the Assay B: GABAA α 5 β 3 γ 2 Emax vs GABA is -13.7% and the EC50 was 12 nM. For `Cn1nnc(-c2ccc(C(F)F)cn2)c1COc1ccc(-n2cnc(C#N)c2)nn1` [Example 52] the same measures were -16% and 2 nM.

`Cn1nnc(-c2ccc(C(F)F)cn2)c1COc1ccc(-n2ccc(C#N)n2)nn1` [Example 53]: the EC50 came to 3.9 nM. With `Cc1nnn(-c2ccc(C(F)F)cn2)c1COc1ccc(-c2cnccn2)nn1` [Example 56, 3-({1-[5-(difluoromethyl)pyridin-2-yl]-4-methyl-1H-1,2,3-triazol-5-yl}methoxy)-6-(pyrazin-2-yl)pyridazine], the Assay B: GABAA α 5 β 3 γ 2 Emax vs GABA was -17.7% and the EC50 came to 14.5 nM.

(Values after patent US20230286946A1, “DIFLUOROMETHYL-PYRIDIN-2-YL TRIAZOLES” (Boehringer Ingelheim International GmbH, priority 2020, published 2023).)
